This assay is described as follows: Inhibition of p53 binding to […] (hdm2-GST).

The source of these data is BindingDB's records for doi:10.1021/jm010468s (Pfizer, 2002).

Usually IC50 stands for the midpoint of a concentration-inhibition curve. A low value points to greater potency in that assay.

Non-standard residues stand in square brackets, D forms with d. Residues, ends and D or L forms follow the SMILES beside them. Trp(6-Cl) = N[C@@H](Cc1c[nH]c2cc(Cl)ccc12)C(=O)O; Pmp = N[C@@H](Cc1ccc(CP(=O)(O)O)cc1)C(=O)O; Ac3c = NC1(C(=O)O)CC1; Aib = CC(C)(N)C(=O)O

The molecule `CSCC[C@H](NC(=O)[C@H](Cc1ccccc1)NC(C)=O)C(=O)NC(C)(C)C(=O)N[C@@H](Cc1ccc(CP(=O)(O)O)cc1)C(=O)N[C@@H](Cc1c[nH]c2cc(Cl)ccc12)C(=O)N[C@@H](CCC(=O)O)C(=O)NC1(C(=O)N[C@@H](CC(C)C)C(N)=O)CC1` [Ac-Phe-Met-Aib-Pmp-6-Cl-Trp-Glu-Ac3c-Leu-NH2, GST-hdm2 binding peptide] (Ac-FM[Aib][Pmp][Trp(6-Cl)]E[Ac3c]L-NH2) gave an IC50 of 5 nM.
